Entries after “also recorded” stand apart in the source; their conditions may differ.
How the values were obtained:
[1] = tested on: C57B mice carrying full-thickness skin wounds; test: Effect of systemic Aza-dC treatment (injection) on wound healing and hair follicle regeneration; assay type: in vivo
Description: Determining the Effect of Systemic Aza-dC Treatment on Wound Healing and Regeneration:
The dermis was fixed in acetone overnight.

[2] = tested on: C57B mice carrying full-thickness skin wounds; test: Effect of topical Aza-dC treatment on wound healing and hair follicle regeneration; assay type: in vivo; settings: for hair follicle (HF) neogenesis compared to the vehicle control / hair follicle regeneration: topical; for hair follicle (HF) neogenesis compared to the vehicle control: once a day for 2 consecutive days (SD0 & SD1); for hair follicle regeneration: once a day for 5 consecutive days
Description: Determining the Effect of Topical Aza-dC Treatment on Wound Healing and Regeneration: […]

`Nc1ncn([C@H]2C[C@H](O)[C@@H](CO)O2)c(=O)n1` [Aza-dC, 5-aza-2′-deoxycytidine] was tested, and the “regeneration of hair follicles in healed wounds” value ([1]; injection, 30 μg per gram body weight once a day for 5 consecutive days (SD0 to SD4)) was “greatly inhibited”, the hair follicle regeneration ([1]; single injection of 30 μg per gram body weight on SD0) was “no effect” and the hair follicle regeneration ([1]; single injection of 30 μg per gram body weight on SD1) was “inhibition on hair follicle regeneration; also recorded: greatly inhibited”. The “inhibitory effect on wound-induced hair follicle regeneration” value ([2]; topical application, unlike systemic treatment) was “little inhibitory effect”, the “stimulatory effect on regeneration” value ([2]; topical treatment extended to 5 days (SD0 to SD4)) was “diminished” and the “hair follicle (HF) neogenesis compared to the vehicle control” value ([2]; all doses tested) was “greatly enhanced”. The “hair follicle (HF) neogenesis compared to the vehicle control” value ([2]; highest tested dose 10 μg) was “strongest enhancement”, the hair follicle regeneration ([2]; 1 μg) was “little effect” and the hair follicle regeneration ([2]; 5 μg) was “little effect”. The hair follicle regeneration ([2]; 10 μg) was “still enhanced”.
